From article PMC10891214, “Effects of food and ethnicity on the pharmacokinetics of venadaparib, a next-generation PARP inhibitor, in healthy Korean, Caucasian, and Chinese male subjects” (Investigational New Drugs, 2023)

Tests used:
[1] = test system: PARP2; parameters: method as in PMID 36808277; details: cited from earlier work
[2] = test system: PARP3; parameters: method as in PMID 36808277; details: cited from earlier work
[3] = test system: PARP5; parameters: method as in PMID 36808277; details: cited from earlier work
[4] = test system: poly(ADP-ribose) formation; parameters: method as in PMID 36808277, PMID 24162931, PMID 33657415; details: cited from earlier work
[5] = test system: cancer cell lines with BRCA mutations; parameters: method as in PMID 36808277; details: cited from earlier work
[6] = parameters: method as in data on file (NCT03317743); details: ref data on file (NCT03317743), cited from earlier work
[7] = test system: cytochrome P450 3A4; parameters: method as in data on file; details: in vitro phenotyping study; ref data on file; cited from earlier work
[8] = Safety assessment (adverse events, vital signs, 12-lead ECGs) after a single administration of venadaparib 80 mg; details: for TEAEs: number of events / TEAEs: number of subjects: Koreans and Caucasians
Protocol: Safety was assessed in all subjects who received the study drug at least once throughout the study based on adverse event (AE) monitoring, physical examinations, vital signs, 12-lead electrocardiograms (ECGs), and clinical laboratory tests.
To support the evaluation of the relationship between concentration and QT/corrected QT (QTc) interval effects in the early stage of the clinical development of venadaparib, triplicate ECG tests were conducted in the middle of the study [22]. A triplicate ECG test was conducted in three Caucasian and five Chinese subjects after the protocol amendment. […] Fridericia’s corrected QT interval (QTcF) was collected, along with the existing ventricular rate, PR interval, QRS duration, QT interval, and QTcB. Triplicate ECGs were measured three times at intervals of 30 s to 2 min at each time point after at least 5 min of resting, and the median value of the three measurements was considered a representative value. QTcF and QTcB were calculated using the following population-derived correction equations: QTcF = QT/RR^0.33 and QTcB = QT/RR^0.5 [22].

[9] = Caucasian, fasted state (N = 12)

Structure (SMILES): O=C(c1cc(Cc2n[nH]c(=O)c3ccccc23)ccc1F)N1CC(CNC2CC2)C1 [venadaparib]
- IC50 compared with those of olaparib [1]: similar
- IC50 compared with those of olaparib [2]: higher
- IC50 compared with those of olaparib [3]: higher
- Activity of inhibiting poly(ADP-ribose) formation, relative to talazoparib [4]: comparable
- Antitumor potency, fold higher than that of olaparib [5]: 40–440 fold
- Mean elimination half-life (t1/2) ([6]; Korean patients with advanced solid tumors, 2–240 mg/day): 7 to 13 h
- Safety and tolerability of multiple three-week administrations ([6]; dose range 2–240 mg/day, Korean patients): safe and well-tolerated
- Relationship of systemic exposure to dose ([6]; dose range 2–240 mg/day): dose-proportional
- Enzyme primarily metabolizing the drug [7]: cytochrome P450 3A4
- Changes in vital signs or 12-lead ECGs ([8]; 80 mg single dose): No clinically significant changes
- Serious AEs ([8]; 80 mg single dose, all groups): No serious AEs were observed
- Severity of TEAEs ([8]; 80 mg single dose, except contact dermatitis (moderate) in one subject, fed state): mild
- Effect of plasma concentrations on QTcF and QTcB values, including changes from the baseline ([8]; 80 mg single dose, triplicate ECG subset): did not prolong
- Safety and tolerability of a single dose ([8]; 80 mg, fasted and fed states, healthy subjects): safe and well-tolerated
- Blood bilirubin increased: number of events [8, 9]: 1
- Chalazion: number of events [8, 9]: 1
- Chalazion: number of subjects (percentage of subjects) [8, 9]: 1 (8.3)
- Eye disorders: number of events [8, 9]: 1
- Eye disorders: number of subjects (percentage of subjects) [8, 9]: 1 (8.3)
- Gastrointestinal disorders: number of events [8, 9]: 1
- Gastrointestinal disorders: number of subjects (percentage of subjects) [8, 9]: 1 (8.3)
- Hyperuricaemia: number of events [8, 9]: 1
- Investigations: number of events [8, 9]: 1
- Metabolism and nutrition disorders: number of events [8, 9]: 1
- Metabolism and nutrition disorders: number of subjects (percentage of subjects) [8, 9]: 1 (8.3)
- Nausea: number of events [8, 9]: 1
- Nausea: number of subjects (percentage of subjects) [8, 9]: 1 (8.3)
- Blood and lymphatic system disorders: number of events ([8]; Caucasian, fed state (N = 12)): 1
- Blood and lymphatic system disorders: number of subjects (percentage of subjects) ([8]; Caucasian, fed state (N = 12)): 1 (8.3)
- Blood bilirubin increased: number of events ([8]; Caucasian, fed state (N = 12)): 1
- Blood bilirubin increased: number of subjects (percentage of subjects) ([8]; Caucasian, fed state (N = 12)): 1 (8.3)
- Decreased appetite: number of events ([8]; Caucasian, fed state (N = 12)): 1
- Decreased appetite: number of subjects (percentage of subjects) ([8]; Caucasian, fed state (N = 12)): 1 (8.3)
- Dermatitis contact: number of events ([8]; Caucasian, fed state (N = 12)): 1
- Dermatitis contact: number of subjects (percentage of subjects) ([8]; Caucasian, fed state (N = 12)): 1 (8.3)
- Eosinophilia: number of events ([8]; Caucasian, fed state (N = 12)): 1
- Eosinophilia: number of subjects (percentage of subjects) ([8]; Caucasian, fed state (N = 12)): 1 (8.3)
- Epigastric discomfort: number of events ([8]; Caucasian, fed state (N = 12)): 1
- Epigastric discomfort: number of subjects (percentage of subjects) ([8]; Caucasian, fed state (N = 12)): 1 (8.3)
- Gastrointestinal disorders: number of events ([8]; Caucasian, fed state (N = 12)): 1
- General disorders and administration site conditions: number of events ([8]; Caucasian, fed state (N = 12)): 1
- General disorders and administration site conditions: number of subjects (percentage of subjects) ([8]; Caucasian, fed state (N = 12)): 1 (8.3)
- Headache: number of events ([8]; Caucasian, fed state (N = 12)): 1
- Headache: number of subjects (percentage of subjects) ([8]; Caucasian, fed state (N = 12)): 1 (8.3)
- Hyperuricaemia: number of events ([8]; Caucasian, fed state (N = 12)): 1
- Hyperuricaemia: number of subjects (percentage of subjects) ([8]; Caucasian, fed state (N = 12)): 1 (8.3)
- Investigations: number of events ([8]; Caucasian, fed state (N = 12)): 1
- Investigations: number of subjects (percentage of subjects) ([8]; Caucasian, fed state (N = 12)): 1 (8.3)
- Lethargy: number of events ([8]; Caucasian, fed state (N = 12)): 1
- Lethargy: number of subjects (percentage of subjects) ([8]; Caucasian, fed state (N = 12)): 1 (8.3)
- Metabolism and nutrition disorders: number of events ([8]; Caucasian, fed state (N = 12)): 2
- Metabolism and nutrition disorders: number of subjects (percentage of subjects) ([8]; Caucasian, fed state (N = 12)): 2 (16.7)
- Nervous system disorders: number of events ([8]; Caucasian, fed state (N = 12)): 2
- Nervous system disorders: number of subjects (percentage of subjects) ([8]; Caucasian, fed state (N = 12)): 2 (16.7)
- Skin and subcutaneous tissue disorders: number of events ([8]; Caucasian, fed state (N = 12)): 1
- Skin and subcutaneous tissue disorders: number of subjects (percentage of subjects) ([8]; Caucasian, fed state (N = 12)): 1 (8.3)
- Thirst: number of events ([8]; Caucasian, fed state (N = 12)): 1
- Thirst: number of subjects (percentage of subjects) ([8]; Caucasian, fed state (N = 12)): 1 (8.3)
- Total TEAEs: number of events ([8]; Caucasian, fed state (N = 12)): 9
- Total TEAEs: number of subjects (percentage of subjects) ([8]; Caucasian, fed state (N = 12)): 7 (58.3)
- Decreased appetite: number of events ([8]; Chinese, fasted state (N = 12)): 1
- Decreased appetite: number of subjects (percentage of subjects) ([8]; Chinese, fasted state (N = 12)): 1 (8.3)
- Dyspepsia: number of events ([8]; Chinese, fasted state (N = 12)): 1
- Dyspepsia: number of subjects (percentage of subjects) ([8]; Chinese, fasted state (N = 12)): 1 (8.3)
- Gastrointestinal disorders: number of events ([8]; Chinese, fasted state (N = 12)): 1
- Gastrointestinal disorders: number of subjects (percentage of subjects) ([8]; Chinese, fasted state (N = 12)): 1 (8.3)
- Hypertriglyceridaemia: number of events ([8]; Chinese, fasted state (N = 12)): 1
- Hypertriglyceridaemia: number of subjects (percentage of subjects) ([8]; Chinese, fasted state (N = 12)): 1 (8.3)
- Metabolism and nutrition disorders: number of events ([8]; Chinese, fasted state (N = 12)): 2
- Metabolism and nutrition disorders: number of subjects (percentage of subjects) ([8]; Chinese, fasted state (N = 12)): 2 (16.7)
- Abdominal pain: number of events ([8]; Korean, fasted state (N = 12)): 1
- Abdominal pain: number of subjects (percentage of subjects) ([8]; Korean, fasted state (N = 12)): 1 (8.3)
- Dyspepsia: number of events ([8]; Korean, fasted state (N = 12)): 1
- Dyspepsia: number of subjects (percentage of subjects) ([8]; Korean, fasted state (N = 12)): 1 (8.3)
- Gastrointestinal disorders: number of events ([8]; Korean, fasted state (N = 12)): 4
- Gastrointestinal disorders: number of subjects (percentage of subjects) ([8]; Korean, fasted state (N = 12)): 3 (25.0)
- Gingival pain: number of events ([8]; Korean, fasted state (N = 12)): 1
- Gingival pain: number of subjects (percentage of subjects) ([8]; Korean, fasted state (N = 12)): 1 (8.3)
- Nausea: number of events ([8]; Korean, fasted state (N = 12)): 1
- Nausea: number of subjects (percentage of subjects) ([8]; Korean, fasted state (N = 12)): 1 (8.3)
- Decreased appetite: number of events ([8]; Korean, fed state (N = 13)): 3
- Decreased appetite: number of subjects (percentage of subjects) ([8]; Korean, fed state (N = 13)): 3 (23.1)
- Dyspepsia: number of events ([8]; Korean, fed state (N = 13)): 2
- Dyspepsia: number of subjects (percentage of subjects) ([8]; Korean, fed state (N = 13)): 1 (7.7)
- Eye disorders: number of events ([8]; Korean, fed state (N = 13)): 3
- Eye disorders: number of subjects (percentage of subjects) ([8]; Korean, fed state (N = 13)): 1 (7.7)
- Eye pain: number of events ([8]; Korean, fed state (N = 13)): 1
- Eye pain: number of subjects (percentage of subjects) ([8]; Korean, fed state (N = 13)): 1 (7.7)
- Gastrointestinal disorders: number of events ([8]; Korean, fed state (N = 13)): 7
- Gastrointestinal disorders: number of subjects (percentage of subjects) ([8]; Korean, fed state (N = 13)): 5 (38.5)
- Hyperaemia: number of events ([8]; Korean, fed state (N = 13)): 1
- Hyperaemia: number of subjects (percentage of subjects) ([8]; Korean, fed state (N = 13)): 1 (7.7)
- Lacrimation increased: number of events ([8]; Korean, fed state (N = 13)): 1
- Lacrimation increased: number of subjects (percentage of subjects) ([8]; Korean, fed state (N = 13)): 1 (7.7)
- Metabolism and nutrition disorders: number of events ([8]; Korean, fed state (N = 13)): 3
- Metabolism and nutrition disorders: number of subjects (percentage of subjects) ([8]; Korean, fed state (N = 13)): 3 (23.1)
- Musculoskeletal and connective tissue disorders: number of events ([8]; Korean, fed state (N = 13)): 1
- Musculoskeletal and connective tissue disorders: number of subjects (percentage of subjects) ([8]; Korean, fed state (N = 13)): 1 (7.7)
- Nausea: number of events ([8]; Korean, fed state (N = 13)): 5
- Nausea: number of subjects (percentage of subjects) ([8]; Korean, fed state (N = 13)): 5 (38.5)
- Respiratory, thoracic, and mediastinal disorders: number of events ([8]; Korean, fed state (N = 13)): 1
- Respiratory, thoracic, and mediastinal disorders: number of subjects (percentage of subjects) ([8]; Korean, fed state (N = 13)): 1 (7.7)
- Rhabdomyolysis: number of events ([8]; Korean, fed state (N = 13)): 1
- Rhabdomyolysis: number of subjects (percentage of subjects) ([8]; Korean, fed state (N = 13)): 1 (7.7)
- Rhinorrhoea: number of events ([8]; Korean, fed state (N = 13)): 1
- Rhinorrhoea: number of subjects (percentage of subjects) ([8]; Korean, fed state (N = 13)): 1 (7.7)
- Total TEAEs: number of events ([8]; Korean, fed state (N = 13)): 16
- Total TEAEs: number of subjects (percentage of subjects) ([8]; Korean, fed state (N = 13)): 6 (46.2)
- Vascular disorders: number of events ([8]; Korean, fed state (N = 13)): 1
- Vascular disorders: number of subjects (percentage of subjects) ([8]; Korean, fed state (N = 13)): 1 (7.7)
- Vision blurred: number of events ([8]; Korean, fed state (N = 13)): 1
- Vision blurred: number of subjects (percentage of subjects) ([8]; Korean, fed state (N = 13)): 1 (7.7)
- TEAEs: number of events ([8]; fasted state, 80 mg): nine
- TEAEs: number of subjects ([8]; fasted state, 80 mg): seven
- TEAEs: number of events ([8]; fed state, 80 mg): 25
- TEAEs: number of subjects ([8]; fed state, 80 mg): 13
